In US7468375B2 (Pfizer Inc., priority 2004, dated 2008):
Read-outs that look alike come from different tables or passages of the source.

Columns and labels:
[1] = target: T1, Full-length wild type HIV-1 integrase (SF1) (Human immunodeficiency virus type 1 group M subtype B, UniProt P04585); assay: Integrase strand-transfer scintillation proximity assay; assay type: biochemical; details: 50 min at 37° C., 246 nM integrase, 50 nM host DNA
T1 construct: made in house; host or cells: E. coli BL21 (DE3)
Text: Integrase Strand-Transfer Scintillation Proximity Assay Oligonucleotides
Oligonucleotide #1-5′-(biotin)[…]-3′ (SEQ ID NO: 1) and oligonucleotide #2-5′-[…]-3′ (SEQ ID NO: 2), were synthesized by TriLink BioTechnologies, Inc. (San Diego, Calif.). The annealed product represents preprocessed viral ds-DNA derived from the LTR U5 sequence of the viral genome. A ds-DNA control to test for non-specific interactions was made using a 3′ di-deoxy derivative of oligonucleotide #1 annealed to oligonucleotide #2. The CA overhang at the 5′ end of the non-biotinylated strand of the ds-DNA was created artificially by using a complimentary DNA oligonucleotide shortened by 2 base pairs. This configuration eliminates the requisite 3′ processing step of the integrase enzyme prior to the strand-transfer mechanism. Host ds-DNA was prepared as an unlabeled and [^3H]-thymidine labeled product from annealed oligonucleotide #3-5-[…]-3′ (SEQ ID NO: 3), and oligonucleotide #4-5′-[…]-3′ (SEQ ID NO: 4), both synthesized by TriLink BioTechnologies, Inc. (San Diego, Calif.). The annealed product had overhanging 3′ ends of poly(dA). Host DNA was custom radiolabeled by PerkinElmer Life Sciences Inc. (Boston, Mass.) using an enzymatic method with a 12/1 ratio of [methyl-3H]dTTP/cold ds-DNA to yield 5′-blunt end ds-DNA with a specific activity of >900 Ci/mmol. The radiolabeled product was purified using a NENSORB cartridge and stored in stabilized aqueous solution (PerkinElmer). The final radiolabeled product had six [^3H]-thymidine nucleotides at both 5′ ends of the host ds-DNA. Reagents: Streptavidin-coated polyvinyltoluene (PVT) SPA beads were purchased from Amersham Biosciences (Piscataway, N.J.). Cesium chloride was purchased from Shelton Scientific, Inc. (Shelton, Conn.). White, polystyrene, flat-bottom, non-binding surface, 96-well plates were purchased from Corning. All other buffer components were purchased from Sigma (St. Louis, Mo.) unless otherwise indicated.
Enzyme Construction: Full-length wild type HIV-1 integrase (SF1) sequence (amino acids 1-288) was constructed in a pET24a vector (Novagen, Madison, Wis.). The construct was confirmed through DNA sequencing. Enzyme Purification: Full length wild-type HIV Integrase was expressed in E. coli BL21 (DE3) cells and induced with 1 mM isopropyl-1 thio-β-D-galactopyranoside (IPTG) when cells reached an optical density between 0.8-1.0 at 600 nm. Cells were lysed by microfluidation in 50 mM HEPES pH 7.0, 75 mM NaCl, 5 mM DTT, 1 mM 4-(2-Aminoethyl)benzenesulfonylfluoride HCl (AEBSF). Lysate was then centrifuged 20 minutes at 11 k rpm in GSA rotor in Sorvall RC-5B at 4° C. Supernant was discarded and pellet resuspended in 50 mM HEPES pH 7.0, 750 mM NaCl, 5 mM DTT, 1 mM AEBSF and homogenized in a 40 mL Dounce homogenizer for 20 minutes on ice. Homogenate was then centrifuged 20 minutes at 11 k rpm in SS34 rotor in Sorvall RC-5B at 4° C. Supernant was discarded and pellet resuspended in 50 mM HEPES pH 7.0, 750 mM NaCl, 25 mM CHAPS, 5 mM DTT, 1 mM AEBSF. Preparation was then centrifuged 20 minutes at 11 k rpm in SS34 rotor in Sorvall RC-5B at 4° C. Supernant was then diluted 1:1 with 50 mM HEPES pH 7.0, 25 mM CHAPS, 1 mM DTT, 1 mM AEBSF and loaded onto a Q-Sepharose column pre-equilibrated with 50 mM HEPES, pH 7.0, 375 mM NaCl, 25 mM CHAPS, 1 mM DTT, 1 mM AEBSF. The flow through peak was collected and NaCl diluted to 0.1 M with 50 mM HEPES pH 7.0, 25 mM CHAPS, 1 mM DTT, 0.5 mM AEBSF and loaded onto a SP-Sepharose column pre-equilibrated with 50 mM HEPES pH 7.0, 100 mM NaCl, 25 mM CHAPS, 1 mM DTT, 0.5 mM AEBSF. After washing the column with the equilibration buffer, a 100 to 400 mM NaCl gradient was run. The eluted integrase was concentrated and run on a S-300 gel diffusion column using 50 mM HEPES pH 7.0, 500 mM NaCl, 25 mM CHAPS, 1 mM DTT, 0.5 mM AEBSF. The peak from this column was concentrated to 0.76 mg/mL and stored at −70° C. and later used for strand transfer assays. […]

[2] = system: RF strain of HIV-1 in CEM-SS cells; assay: HIV-1 cell protection assay (XTT dye reduction); assay type: cell-based; details: Human immunodeficiency virus 1, CEM-SS, 144 h, HIV-1 RF, CEM-SS cells, XTT dye reduction, six days; read-out: EC50
Description: HIV-1 Cell Protection Assay
The antiviral activities of potential modulator compounds (test compounds) were determined in HIV-1 cell protection assays using the RF strain of HIV-1, CEM-SS cells, and the XTT dye reduction method (Weislow, O. S. et al., J. Natl. Cancer Inst. 81: 577-586 (1989)). Subject cells were infected with HIV-1 RF virus at an moi of 0.025 to 0.819 or mock infected with medium only and added at 2×10^4 cells per well into 96 well plates containing half-log dilutions of test compounds. Six days later, 50 μl of XTT solution (1 mg/ml XTT tetrazolium and […] phenazine methosulfate) were added to the wells and the plates were reincubated for four hours. Viability, as determined by the amount of XTT formazan produced, was quantified spectrophotometrically by absorbance at 450 nm. Data from CPE assays were expressed as the percent of formazan produced in compound-treated cells compared to formazan produced in wells of uninfected, compound-free cells. […] The therapeutic index was calculated by dividing the cytotoxicity (CC50) by the antiviral activity (EC50).

[3] = strand transfer, read-out: IC50

Question: What does the source list for `Cc1cnc(CNCc2cn(Cc3ccc(F)cc3F)c3cnc(C(=O)NO)cc23)cn1` [Example 66, 1-(2,4-Difluorobenzyl)-N-hydroxy-3-({[(5-methylpyrazin-2-yl)methyl]amino}methyl)-1H-pyrrolo[2,3-c]pyridine-5-carboxamide]?
Answer: IC50 [1, 3]: 357 nM; EC50 [2]: 11 nM

Question: Which IC50 [1, 3] does the source give for `CN1CCC(NCc2cn(Cc3ccc(F)cc3F)c3cnc(C(=O)NO)cc23)CC1` [Example 89, 1-(2,4-Difluorobenzyl)-N-hydroxy-3-{[(1-methylpiperidin-4-yl)amino]methyl}-1H-pyrrolo[2,3-c]pyridine-5-carboxamide] here?
Answer: The IC50 was 708 nM.

Question: What about the EC50 [2] of the same compound?
Answer: Its EC50 is 52 nM.

Question: `O=C(NO)c1cc2ccn(Cc3ccc(F)cc3F)c2cn1` [Example 1, 1-(2,4-Difluorobenzyl)-N-hydroxy-1H-pyrrolo[2,3-c]pyridine-5-carboxamide] was tested. Which IC50 [1, 3] did it give?
Answer: Its IC50 is 84 nM.

Question: And the EC50 [2]?
Answer: Its EC50 is 7.95 nM.

Question: With `CCOCCOCc1cn(Cc2ccc(F)cc2)c2cnc(C(=O)N(C)O)cc12` [Example 120, 3-[(2-ethoxyethoxy)methyl]-1-(4-fluorobenzyl)-N-hydroxy-N-methyl-1H-pyrrolo[2,3-c]pyridine-5-carboxamide] as the compound, how does the IC50 [1, 3] read?
Answer: Its IC50 is 57 nM.

Question: And the EC50 [2]?
Answer: The EC50 was 307 nM.

Question: How did the IC50 [1, 3] turn out when `CC(NCc1cn(Cc2ccc(F)cc2F)c2cnc(C(=O)NO)cc12)c1ccccc1` (centres unmarked) [Example 71, 1-(2,4-Difluorobenzyl)-N-hydroxy-3-{[(1-phenylethyl)amino]methyl}-1H-pyrrolo[2,3-c]pyridine-5-carboxamide] was run?
Answer: Its IC50 is 409 nM.

Question: And the EC50 [2]?
Answer: The EC50 was 44 nM.

Question: What does the source list for `CN(Cc1cnn(-c2ccccc2)c1)Cc1cn(Cc2ccc(F)cc2F)c2cnc(C(=O)NO)cc12` [Example 93, 1-(2,4-Difluorobenzyl)-N-hydroxy-3-({methyl[(1-phenyl-1H-pyrazol-4-yl)methyl]amino}methyl)-1H-pyrrolo[2,3-c]pyridine-5-carboxamide]?
Answer: IC50 [1, 3]: 187 nM; EC50 [2]: 71 nM

Question: `CCN1CCCC1CNCc1cn(Cc2ccc(F)cc2F)c2cnc(C(=O)NOC)cc12` (centres unmarked) [Example 46, 1-(2,4-Difluorobenzyl)-3-({[(1-ethylpyrrolidin-2-yl)methyl]amino}methyl)-N-methoxy-1H-pyrrolo[2,3-c]pyridine-5-carboxamide] was tested. Which IC50 [1, 3] did it give?
Answer: The IC50 was 912 nM.

Question: What about the EC50 [2] of the same compound?
Answer: The EC50 was 130 nM.

Question: `O=C(NO)c1cc2c(COC[C@H](O)CO)cn(Cc3ccc(F)cc3F)c2cn1` [Example 107, 1-(2,4-Difluorobenzyl)-3-({[(2S)-2,3-dihydroxypropyl]oxy}methyl)-hydroxy-1H-pyrrolo[2,3-c]pyridine-5-carboxamide] was tested. Which IC50 ([1]; IC50, strand transfer) did it give?
Answer: Its IC50 is 3.4 nM.

Question: And the EC50 [2]?
Answer: The EC50 was 32.2 nM.

Question: How did the IC50 [1, 3] turn out when `O=C1CN(Cc2cn(Cc3ccc(F)cc3)c3cnc(C(=O)NOc4ccccc4)cc23)CCN1` [Example 104, 1-(4-Fluorobenzyl)-3-[(3-oxopiperazin-1-yl)methyl]-N-phenoxy-1H-pyrrolo[2,3-c]pyridine-5-carboxamide] was run?
Answer: Its IC50 is 182 nM.

Question: What about the EC50 [2] of the same compound?
Answer: Its EC50 is 4.45 nM.

Question: With `Cc1ccc2c(c1)C(NCc1cn(Cc3ccc(F)cc3F)c3cnc(C(=O)NO)cc13)CCO2` (centres unmarked) [Example 98, 1-(2,4-difluorobenzyl)-N-hydroxy-3-{[(6-methyl-3,4-dihydro-2H-chromen-4-yl)amino]methyl}-1H-pyrrolo[2,3-c]pyridine-5-carboxamide] as the compound, how does the IC50 [1, 3] read?
Answer: The IC50 was 256 nM.

Question: And the EC50 [2]?
Answer: The EC50 was 100 nM.

Question: For `C=CCONC(=O)c1cc2c(CN3CCNC(=O)C3)cn(Cc3ccc(F)cc3)c2cn1` [Example 103, N-(Allyloxy)-1-(4-fluorobenzyl)-3-[(3-oxopiperazin-1-yl)methyl]-1H-pyrrolo[2,3-c]pyridine-5-carboxamide], which IC50 [1, 3] is on record?
Answer: Its IC50 is 702 nM.

Question: And the EC50 [2]?
Answer: Its EC50 is 130 nM.

Question: Which IC50 [1, 3] does the source give for `C[C@@H](NCc1cn(Cc2ccc(F)cc2F)c2cnc(C(=O)NO)cc12)[C@@H](O)c1ccccc1` (stereo in doubt) [Example 86, 1-(2,4-Difluorobenzyl)-N-hydroxy-3-{[(2-hydroxy-1-methyl-2-phenylethyl)amino]methyl}-1H-pyrrolo[2,3-c]pyridine-5-carboxamide] here?
Answer: Its IC50 is 314 nM.

Question: What about the EC50 [2] of the same compound?
Answer: The EC50 was 11 nM.

Question: For `O=C(NO)c1cc2c(CN[C@@H](CO)c3ccccc3)cn(Cc3ccc(F)cc3F)c2cn1` [Example 59, 1-(2,4-Difluorobenzyl)-N-hydroxy-3-({[(1R)-2-hydroxy-1-phenylethyl]amino}methyl)-1H-pyrrolo[2,3-c]pyridine-5-carboxamide], which IC50 [1, 3] is on record?
Answer: The IC50 was 221 nM.

Question: And the EC50 [2]?
Answer: Its EC50 is 18 nM.

Question: For `CN(O)C(=O)c1cc2c(CN3CCOCC3)cn(Cc3ccc(F)cc3F)c2cn1` [Example 7, 1-(2,4-Difluorobenzyl)-A-hydroxy-N-methyl-3-(morpholin-4-ylmethyl)-1H-pyrrolo[2,3-c]pyridine-5-carboxamide], which IC50 [1, 3] is on record?
Answer: Its IC50 is 140 nM.

Question: What about the EC50 [2] of the same compound?
Answer: The EC50 was 21 nM.

Question: With `O=C(NO)c1cc2ncn(CCC3CCCCC3)c2cn1` [Example 25, 3-(2-Cyclohexylethyl)-N-hydroxy-3-H-imidazo[4,5-c]pyridine-6-carboxamide] as the compound, how does the IC50 [1, 3] read?
Answer: The IC50 was 1720 nM.

Question: And the EC50 [2]?
Answer: The EC50 was 230 nM.

Question: Which results are given for `C[C@@H](NCc1cn(Cc2ccc(F)cc2F)c2cnc(C(=O)NO)cc12)C1CCCCC1` [Example 76, 3-({[(1R)-1-Cyclohexylethyl]amino}methyl)-1-(2,4-difluorobenzyl)-N-hydroxy-1H-pyrrolo[2,3-c]pyridine-5-carboxamide]?
Answer: IC50 [1, 3]: 402 nM; EC50 [2]: 91 nM

Question: Which IC50 [1, 3] does the source give for `Cc1nnc(CCNCc2cn(Cc3ccc(F)cc3F)c3cnc(C(=O)NO)cc23)[nH]1` [Example 100, 1-(2,4-Difluorobenzyl)-N-hydroxy-3-({[2-(5-methyl-4H-1,2,4-triazol-3-yl)ethyl]amino}methyl)-1H-pyrrolo[2,3-c]pyridine-5-carboxamide] here?
Answer: Its IC50 is 270 nM.

Question: And the EC50 [2]?
Answer: Its EC50 is 10000 nM.

Question: What does the source list for `O=C(NO)c1cc2c(CNCC34CCCN3CCC4)cn(Cc3ccc(F)cc3F)c2cn1` [Example 92, 1-(2,4-Difluorobenzyl)-N-hydroxy-3-{[(tetrahydro-1H-pyrrolizin-7a(5H)-ylmethyl)amino]methyl}-1H-pyrrolo[2,3-c]pyridine-5-carboxamide]?
Answer: IC50 [1, 3]: 425 nM; EC50 [2]: 70 nM

Question: With `O=C(NO)c1ncc2c(ccn2Cc2ccc(F)cc2)c1O` [Example 42, 1-(4-Fluorobenzyl)-N,4-dihydroxy-1H-pyrrolo[2,3-c]pyridine-5-carboxamide] as the compound, how does the IC50 [1, 3] read?
Answer: The IC50 was 27 nM.

Question: What about the EC50 [2] of the same compound?
Answer: Its EC50 is 1 nM.
